Measured values as given in US12195482B1 (Arcus Biosciences, Inc., priority 2022, dated 2025).

Legend:
p-AXL = target: T1, p-AXL (Homo sapiens, UniProt P30530); test: Axl phosphorylation inhibition ELISA in HEK293T cells transfected with NanoLuc-tagged AXL; format: cell-based; conditions: 1 h compound incubation, media (OptiMEM)
T1 construct: expressed in transfected cells; host or cells: HEK293T
T1 sequence (P30530 26-894): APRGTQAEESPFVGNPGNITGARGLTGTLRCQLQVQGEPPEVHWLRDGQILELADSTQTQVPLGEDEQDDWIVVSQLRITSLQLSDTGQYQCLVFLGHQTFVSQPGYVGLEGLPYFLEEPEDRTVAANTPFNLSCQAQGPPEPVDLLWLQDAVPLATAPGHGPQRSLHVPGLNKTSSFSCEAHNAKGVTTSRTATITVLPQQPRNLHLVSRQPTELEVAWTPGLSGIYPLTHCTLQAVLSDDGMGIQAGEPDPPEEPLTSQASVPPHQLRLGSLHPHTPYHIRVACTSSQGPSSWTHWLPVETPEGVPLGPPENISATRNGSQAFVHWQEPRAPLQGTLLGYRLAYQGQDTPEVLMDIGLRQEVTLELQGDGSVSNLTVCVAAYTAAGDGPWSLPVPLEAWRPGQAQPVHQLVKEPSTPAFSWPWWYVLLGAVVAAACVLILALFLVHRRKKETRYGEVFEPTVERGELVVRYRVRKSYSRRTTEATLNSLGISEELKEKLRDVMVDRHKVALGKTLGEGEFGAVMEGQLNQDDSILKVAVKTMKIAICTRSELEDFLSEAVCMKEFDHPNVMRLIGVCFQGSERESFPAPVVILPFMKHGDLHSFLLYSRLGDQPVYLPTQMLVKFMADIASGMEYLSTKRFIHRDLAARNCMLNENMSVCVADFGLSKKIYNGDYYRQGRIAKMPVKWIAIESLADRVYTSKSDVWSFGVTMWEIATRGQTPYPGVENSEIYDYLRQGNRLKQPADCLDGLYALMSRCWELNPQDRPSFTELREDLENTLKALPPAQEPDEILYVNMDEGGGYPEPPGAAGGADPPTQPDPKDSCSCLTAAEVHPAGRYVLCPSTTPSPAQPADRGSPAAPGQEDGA
Summary of the method: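 HEK293T cells transiently transfected one day earlier with NanoLuc-tagged AXL were exposed to 22-point 2-fold compound dilutions for 1 h at 37° C (70,000 cells/well), then lysed. Lysates captured on anti-phospho-tyrosine coated plates for 2 h; bound p-AXL read by NanoLuc luminescence; IC50 from 4-parameter logistic fit.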

Axl = target: T2, Axl (Homo sapiens, UniProt P30530); test: Biochemical potency, HTRF KinEASE-TK kinase assay; design: purchased Invitrogen; conditions: 5 nM AXL, 700 μM ATP
T2 sequence (P30530 26-894): T1 sequence (P30530 26-894)
Summary of the method: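 Steps: compound plus kinase, 1 h RT; add ATP (700 µM final) and biotin-TK substrate (800 nM final); run 2 h RT; stop into streptavidin-XL665/anti-phospho cryptate detection mix, 1 h; read 665/620. AXL at 5 nM, TYRO3 and MER at 1 nM.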

Cc1cnc(-c2ccc(-c3c[nH]c4ncc(-c5ccc6c(c5)CC[C@@H](N5CCCC5)CC6)cc34)cc2)c(C)n1 [Example 59, 3,5-Dimethyl-2-(4-{5-[(7S)-7-(pyrrolidin-1-yl)-6,7,8,9-tetrahydro-5H-benzo[7]annulen-2-yl]-1H-pyrrolo[2,3-b]pyridin-3-yl}phenyl)pyrazine]
IC50 (p-AXL): 100 to 1000 nM | IC50 (Axl): < 100 nM
